Test results from US9302999B2, “Substituted triazoles as herbicides” (E. I. DU PONT DE NEMOURS AND COMPANY, priority 2012, dated 2016).
Like-named read-outs stand apart in the source and are kept apart here.

Tests used:
Assay type in all cases: in vivo
rice (Oryza sativa) = test: Test C flooded paddy test: rice; details: Oryza sativa, scale 0 to 100 (0 no effect, 100 complete control), read-out: Plant response rating, Rice; for plant injury at 62 g/ha: 62 g ai/ha; for plant injury at 250 g/ha: 250 g ai/ha; for plant injury at 125 g/ha: 125 g ai/ha
How it was run: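 Visual ratings from 0 (no effect) to 100 (complete control), made against untreated controls 13 to 15 days after treatment, express plant response. Compounds went directly into paddy water over 2-leaf stage plants in pots flooded to 3 cm.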

kochia (Kochia scoparia) = test: Test D pre-/postemergence: kochia
From the text: (§1) Seeds of plant species selected from bluegrass (annual bluegrass, Poa annua), blackgrass (Alopecurus myosuroides), canarygrass (Phalaris minor), chickweed (common chickweed, Stellaria media), galium (catchweed bedstraw, Galium aparine), bromegrass, downy (downy bromegrass, Bromus tectorum), field poppy (Papaver rhoeas), field violet (Viola arvensis), foxtail, green (green foxtail, Setaria viridis), deadnettle (henbit deadnettle, Lamium amplexicaule), ryegrass, Italian (Italian ryegrass, Lolium multiflorum), kochia (Kochia scoparia), lambsquarters (Chenopodium album), oilseed rape (Brassica napus), pigweed (Amaranthus retroflexus), Russian thistle (Salsola iberica), chamomile (scentless chamomile, Matricaria inodora), speedwell (bird's-eye speedwell, Veronica persica), barley, spring (spring barley, Hordeum vulgare), wheat, spring (spring wheat, Triticum aestivum), buckwheat, wild (wild buckwheat, Polygonum convolvulus), mustard, wild (wild mustard, Sinapis arvensis), oat, wild (wild oat, Avena fatua), radish, wild (wild radish, Raphanus raphanistrum), windgrass (Apera spica-venti), barley, winter (winter barley, Hordeum vulgare), and wheat, winter (winter wheat, Triticum aestivum) were planted into a silt loam soil and treated preemergence with test chemicals formulated in a non-phytotoxic solvent mixture which included a surfactant. At the same time, these same crop and weed species were planted in pots containing the planting medium comprising spaghnum peat moss, vermiculite, wetting agent and starter nutrients and treated with postemergence applications of the test chemicals formulated in the same manner. Plants ranged in height from 2 to 18 cm (1- to 4-leaf stage).
(§2) Treated plants and controls were maintained in a controlled growth environment for 14 to 21 days after which time all species were compared to controls and visually evaluated. Plant response ratings, summarized in Table D, are based on a scale of 0 to 100 where 0 is no effect and 100 is complete control. A dash (-) response means no test result.

[1] = tested on: buckwheat, wild (wild buckwheat, Polygonum convolvulus); test: Test D pre-/postemergence: buckwheat, wild
From the text: as §1, §2

[2] = tested on: deadnettle (henbit deadnettle, Lamium amplexicaule); test: Test D pre-/postemergence: deadnettle
From the text: as §1, §2

[3] = tested on: ryegrass, Italian (Italian ryegrass, Lolium multiflorum); test: Test D pre-/postemergence: ryegrass, Italian
From the text: as §1, §2

[4] = tested on: field poppy (Papaver rhoeas); test: Test D pre-/postemergence: field poppy
From the text: as §1, §2

[5] = Flood (flooded paddy test), visual rating after 13 to 15 days
[6] = Postemergence, 31 g ai/ha, scale 0 to 100 (0 no effect, 100 complete control)
[7] = Postemergence, 62 g ai/ha, scale 0 to 100 (0 no effect, 100 complete control)
[8] = Postemergence, 125 g ai/ha, scale 0 to 100, 0 no effect, 100 complete control
[9] = Postemergence, 250 g ai/ha, scale 0 to 100 (0 no effect, 100 complete control)
[10] = Preemergence, 31 g ai/ha, scale 0 to 100, 0 no effect, 100 complete control
[11] = Preemergence, 62 g ai/ha, scale 0 to 100
[12] = Preemergence, 125 g ai/ha, scale 0 to 100
[13] = Preemergence, 250 g ai/ha, scale 0 to 100
[14] = Postemergence, 16 g ai/ha, scale 0 to 100
[15] = Preemergence, 16 g ai/ha, scale 0 to 100, 0 no effect, 100 complete control

Cc1nn(-c2ccc(C(F)(F)F)cc2)nc1Oc1csc(C(F)(F)F)c1 [Compound 1, 4-methyl-2-[4-(trifluoromethyl)phenyl]-5-[[5-(trifluoromethyl)-3-thienyl]oxy]-2H-1,2,3-triazole]
plant injury at 62 g/ha (rice (Oryza sativa); [5]): 0%
plant injury at 250 g/ha (rice (Oryza sativa); [5]): 0%

FC(F)(F)COc1nn(-c2ccc(C(F)(F)F)cc2)nc1Cc1ccnc(C(F)(F)F)c1 [Compound 14, 4-[[5-(2,2,2-trifluoroethoxy)-2-[4-(trifluoromethyl)phenyl]-2H-1,2,3-triazol-4-yl]methyl]-2-(trifluoromethyl)pyridine]
Plant response rating: Kochia (kochia (Kochia scoparia); [6]): 95
Plant response rating: Kochia (kochia (Kochia scoparia); [7]): 95
Plant response rating: Kochia (kochia (Kochia scoparia); [8]): 100
Plant response rating: Kochia (kochia (Kochia scoparia); [9]): 100
Plant response rating, Kochia (kochia (Kochia scoparia); [10]): 10
Plant response rating, Kochia (kochia (Kochia scoparia); [11]): 40
Plant response rating, Kochia (kochia (Kochia scoparia); [12]): 80
Plant response rating, Kochia (kochia (Kochia scoparia); [13]): 90
Plant response rating: Buckwheat, Wild [1, 6]: 0
Plant response rating: Buckwheat, Wild [1, 7]: 40
Plant response rating: Buckwheat, Wild [1, 8]: 60
Plant response rating: Buckwheat, Wild [1, 9]: 100
Plant response rating, Buckwheat, Wild [1, 10]: 0
Plant response rating, Buckwheat, Wild [1, 11]: 30
Plant response rating, Buckwheat, Wild [1, 12]: 35
Plant response rating, Buckwheat, Wild [1, 13]: 40
Plant response rating: Deadnettle [2, 6]: 25
Plant response rating: Deadnettle [2, 7]: 40
Plant response rating: Deadnettle [2, 8]: 100
Plant response rating: Deadnettle [2, 9]: 100
Plant response rating, Deadnettle [2, 10]: 60
Plant response rating, Deadnettle [2, 11]: 70
Plant response rating, Deadnettle [2, 12]: 100
Plant response rating, Deadnettle [2, 13]: 100
Plant response rating: Ryegrass, Italian [3, 6]: 5
Plant response rating: Ryegrass, Italian [3, 7]: 20
Plant response rating: Ryegrass, Italian [3, 8]: 25
Plant response rating: Ryegrass, Italian [3, 9]: 35
Plant response rating, Ryegrass, Italian [3, 10]: 0
Plant response rating, Ryegrass, Italian [3, 11]: 25
Plant response rating, Ryegrass, Italian [3, 12]: 25
Plant response rating, Ryegrass, Italian [3, 13]: 50
Plant response rating: Field Poppy [4, 6]: 100
Plant response rating: Field Poppy [4, 7]: 100
Plant response rating: Field Poppy [4, 8]: 100
Plant response rating: Field Poppy [4, 9]: 100
plant injury at 62 g/ha (rice (Oryza sativa); [5]): 40%
plant injury at 250 g/ha (rice (Oryza sativa); [5]): 45%

COCc1nn(-c2ccc(C(F)(F)F)cc2)nc1Oc1cccc(OC(F)(F)F)c1 [Compound 115, 4-(methoxymethyl)-5-[3-(trifluoromethoxy)phenoxy]-2-[4-(trifluoromethyl)phenyl]-2H-1,2,3-triazole]
plant injury at 125 g/ha (rice (Oryza sativa); [5]): 30%
plant injury at 250 g/ha (rice (Oryza sativa); [5]): 40%
plant injury at 62 g/ha (rice (Oryza sativa); Flood): 20%

FCc1nn(-c2ccc(C(F)(F)F)cc2)nc1Oc1cccc(OC(F)(F)F)c1 [Compound 116, 4-(fluoromethyl)-5-[3-(trifluoromethoxy)phenoxy]-2-[4-(trifluoromethyl)phenyl]-2H-1,2,3-triazole]
plant injury at 125 g/ha (rice (Oryza sativa); [5]): 20%
plant injury at 250 g/ha (rice (Oryza sativa); [5]): 30%
plant injury at 62 g/ha (rice (Oryza sativa); Flood): 0%

COc1nn(-c2ccc(C(F)(F)F)cc2)nc1Cc1ccnc(C(F)F)c1 [Compound 138]
Plant response rating: Kochia (kochia (Kochia scoparia); [6]): 95
Plant response rating: Kochia (kochia (Kochia scoparia); [7]): 100
Plant response rating: Kochia (kochia (Kochia scoparia); [8]): 100
Plant response rating: Kochia (kochia (Kochia scoparia); [9]): 100
Plant response rating, Kochia (kochia (Kochia scoparia); [14]): 95
Plant response rating: Buckwheat, Wild [1, 6]: 40
Plant response rating: Buckwheat, Wild [1, 7]: 50
Plant response rating: Buckwheat, Wild [1, 8]: 80
Plant response rating: Buckwheat, Wild [1, 9]: 80
Plant response rating, Buckwheat, Wild [1, 14]: 40
Plant response rating: Deadnettle [2, 6]: 50
Plant response rating: Deadnettle [2, 7]: 75
Plant response rating: Deadnettle [2, 8]: 80
Plant response rating: Deadnettle [2, 9]: 95
Plant response rating, Deadnettle [2, 14]: 50
Plant response rating: Ryegrass, Italian [3, 6]: 25
Plant response rating: Ryegrass, Italian [3, 7]: 35
Plant response rating: Ryegrass, Italian [3, 8]: 40
Plant response rating: Ryegrass, Italian [3, 9]: 50
Plant response rating, Ryegrass, Italian [3, 14]: 10
Plant response rating: Field Poppy [4, 6]: 90
Plant response rating: Field Poppy [4, 7]: 90
Plant response rating: Field Poppy [4, 8]: 100
Plant response rating: Field Poppy [4, 9]: 100
Plant response rating, Field Poppy [4, 14]: 80

CCc1nn(-c2ccc(C(F)(F)F)cc2)nc1Cc1ccnc(C(F)(F)F)c1 [Compound 155]
Plant response rating: Kochia (kochia (Kochia scoparia); [6]): 80
Plant response rating: Kochia (kochia (Kochia scoparia); [7]): 85
Plant response rating: Kochia (kochia (Kochia scoparia); [8]): 85
Plant response rating, Kochia (kochia (Kochia scoparia); [14]): 70
Plant response rating, Kochia (kochia (Kochia scoparia); [15]): 30
Plant response rating, Kochia (kochia (Kochia scoparia); [10]): 60
Plant response rating, Kochia (kochia (Kochia scoparia); [11]): 65
Plant response rating, Kochia (kochia (Kochia scoparia); [12]): 75
Plant response rating: Buckwheat, Wild [1, 6]: 70
Plant response rating: Buckwheat, Wild [1, 7]: 70
Plant response rating: Buckwheat, Wild [1, 8]: 75
Plant response rating, Buckwheat, Wild [1, 14]: 75
Plant response rating, Buckwheat, Wild [1, 15]: 10
Plant response rating, Buckwheat, Wild [1, 10]: 25
Plant response rating, Buckwheat, Wild [1, 11]: 50
Plant response rating, Buckwheat, Wild [1, 12]: 70
Plant response rating: Deadnettle [2, 6]: 75
Plant response rating: Deadnettle [2, 7]: 90
Plant response rating: Deadnettle [2, 8]: 100
Plant response rating, Deadnettle [2, 14]: 75
Plant response rating, Deadnettle [2, 15]: 5
Plant response rating, Deadnettle [2, 10]: 5
Plant response rating, Deadnettle [2, 11]: 80
Plant response rating, Deadnettle [2, 12]: 95
Plant response rating: Ryegrass, Italian [3, 6]: 15
Plant response rating: Ryegrass, Italian [3, 7]: 25
Plant response rating: Ryegrass, Italian [3, 8]: 60
Plant response rating, Ryegrass, Italian [3, 14]: 5
Plant response rating, Ryegrass, Italian [3, 15]: 0
Plant response rating, Ryegrass, Italian [3, 10]: 0
Plant response rating, Ryegrass, Italian [3, 11]: 10
Plant response rating, Ryegrass, Italian [3, 12]: 65
Plant response rating: Field Poppy [4, 6]: 95
Plant response rating: Field Poppy [4, 7]: 100
Plant response rating: Field Poppy [4, 8]: 100
Plant response rating, Field Poppy [4, 14]: 80
Plant response rating, Field Poppy [4, 15]: 80
Plant response rating, Field Poppy [4, 10]: 95
Plant response rating, Field Poppy [4, 11]: 95
Plant response rating, Field Poppy [4, 12]: 100

Cc1nn(-c2ccc(F)c(C(F)(F)F)c2)nc1Cc1ccnc(C(F)(F)F)c1 [Compound 156]
Plant response rating: Kochia (kochia (Kochia scoparia); [6]): 80
Plant response rating: Kochia (kochia (Kochia scoparia); [7]): 95
Plant response rating: Kochia (kochia (Kochia scoparia); [8]): 90
Plant response rating, Kochia (kochia (Kochia scoparia); [14]): 75
Plant response rating, Kochia (kochia (Kochia scoparia); [15]): 10
Plant response rating, Kochia (kochia (Kochia scoparia); [10]): 30
Plant response rating, Kochia (kochia (Kochia scoparia); [11]): 65
Plant response rating, Kochia (kochia (Kochia scoparia); [12]): 80
Plant response rating: Buckwheat, Wild [1, 6]: 75
Plant response rating: Buckwheat, Wild [1, 7]: 80
Plant response rating: Buckwheat, Wild [1, 8]: 85
Plant response rating, Buckwheat, Wild [1, 14]: 70
Plant response rating, Buckwheat, Wild [1, 15]: 0
Plant response rating, Buckwheat, Wild [1, 10]: 50
Plant response rating, Buckwheat, Wild [1, 11]: 65
Plant response rating, Buckwheat, Wild [1, 12]: 100
Plant response rating: Deadnettle [2, 6]: 85
Plant response rating: Deadnettle [2, 7]: 100
Plant response rating: Deadnettle [2, 8]: 100
Plant response rating, Deadnettle [2, 14]: 70
Plant response rating, Deadnettle [2, 15]: 5
Plant response rating, Deadnettle [2, 10]: 15
Plant response rating, Deadnettle [2, 11]: 100
Plant response rating, Deadnettle [2, 12]: 100
Plant response rating: Ryegrass, Italian [3, 6]: 15
Plant response rating: Ryegrass, Italian [3, 7]: 10
Plant response rating: Ryegrass, Italian [3, 8]: 25
Plant response rating, Ryegrass, Italian [3, 14]: 5
Plant response rating, Ryegrass, Italian [3, 15]: 0
Plant response rating, Ryegrass, Italian [3, 10]: 5
Plant response rating, Ryegrass, Italian [3, 11]: 5
Plant response rating, Ryegrass, Italian [3, 12]: 60
Plant response rating: Field Poppy [4, 6]: 100
Plant response rating: Field Poppy [4, 7]: 100
Plant response rating: Field Poppy [4, 8]: 100
Plant response rating, Field Poppy [4, 14]: 85
Plant response rating, Field Poppy [4, 15]: 85
Plant response rating, Field Poppy [4, 10]: 100
Plant response rating, Field Poppy [4, 11]: 95
Plant response rating, Field Poppy [4, 12]: 100
